In PubChem BioAssay (NCI):
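48-hour exposure; five concentrations; linearly interpolated endpoints. Abbreviation: GI50, concentration required for 50% inhibition of growth. The concentration for full growth arrest is given as TGI.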

Assays:
Test in all cases: NCI-60 cell line screen, 48 h
[1] = system: NCI-H226 lung
[2] = system: NCI-H23 lung
[3] = system: NCI-H460 lung
[4] = system: NCI-H522 lung
[5] = system: OVCAR-3 ovarian
[6] = system: OVCAR-4 ovarian
[7] = system: OVCAR-5 ovarian
[8] = system: OVCAR-8 ovarian
[9] = system: PC-3 prostate
[10] = system: RPMI-8226 leukemia
[11] = system: RXF 393 renal
[12] = system: SF-268 CNS
[13] = system: SF-295 CNS
[14] = system: SF-539 CNS
[15] = system: SK-MEL-2 melanoma
[16] = system: SK-MEL-28 melanoma
[17] = system: SK-MEL-5 melanoma
[18] = system: SK-OV-3 ovarian
[19] = system: SN12C renal
[20] = system: SNB-19 CNS
[21] = system: SNB-75 CNS
[22] = system: SR leukemia
[23] = system: SW-620 colon
[24] = system: T-47D breast
[25] = system: TK-10 renal
[26] = system: U251 CNS
[27] = system: UACC-257 melanoma
[28] = system: UACC-62 melanoma
[29] = system: UO-31 renal

## COc1cc(NC(=O)c2cc(-c3ccc(F)cc3F)ccc2O)cc(OC)c1OC
[1]
  GI50: 6.92 µM
  TGI: 30 µM
[2]
  GI50: 4.75 µM
  TGI: 18.9 µM
[3]
  GI50: 6.51 µM
  TGI: 20.2 µM
[4]
  GI50: 3.19 µM
  TGI: 13.7 µM
[5]
  GI50: 5.49 µM
  TGI: 32.4 µM
[6]
  GI50: 4.45 µM
  TGI: 31.4 µM
[7]
  GI50: 19.3 µM
  TGI: 43.4 µM
[8]
  GI50: 13 µM
  TGI: > 100 µM
[9]
  GI50: 12.5 µM
  TGI: 61.5 µM
[10]
  GI50: 3.4 µM
  TGI: 45.9 µM
[11]
  GI50: 2.86 µM
  TGI: 16.8 µM
[12]
  GI50: 6.03 µM
  TGI: 28.3 µM
[13]
  GI50: 15.6 µM
  TGI: 32.6 µM
[14]
  GI50: 12.4 µM
  TGI: 26.5 µM
[15]
  GI50: 3.01 µM
  TGI: 13.9 µM
[16]
  GI50: 8.98 µM
  TGI: 22.3 µM
[17]
  GI50: 3.16 µM
  TGI: 10.6 µM
[18]
  GI50: 8.43 µM
  TGI: 23.9 µM
[19]
  GI50: 6.12 µM
  TGI: 22.1 µM
[20]
  GI50: 6.63 µM
  TGI: 29.5 µM
[21]
  GI50: 6.57 µM
  TGI: 23.8 µM
[22]
  GI50: 4.2 µM
  TGI: 40.5 µM
[23]
  GI50: 14.2 µM
  TGI: 29 µM
[24]
  GI50: 2.73 µM
  TGI: 9.31 µM
[25]
  GI50: 12 µM
  TGI: 45.4 µM
[26]
  GI50: 11 µM
  TGI: 27.1 µM
[27]
  GI50: 10.2 µM
  TGI: 22.4 µM
[28]
  GI50: 3.52 µM
  TGI: 13.4 µM
[29]
  GI50: 5.24 µM
  TGI: 23.5 µM
